Key:
gastric erosions = assay: gastric irritancy in starved rats, 1 hour contact time; assay type: in vivo, rat; conditions: rats fasted 18 hr
Protocol: When tested in starved rats (18 hr. fasted) with a 1 hour contact time the following results were obtained:
*Mixture made from dry compounds
**Constituents dosed as solutions

[1] = test system: phenylquinone induced writhing; assay: phenylquinone induced writhing in the mouse (analgesic effects); assay type: in vivo; conditions: dose in terms of acetyl salicylate content, mixture at 2:1 ratio of equivalents, read-out: ED50 (analgesic effect)
Protocol: Sodium acetyl salicylate and mixtures of sodium acetyl salicylate and ferrous sulphate (2:1 ratio of equivalents) were tested against phenylquinone induced writhing in the mouse. Dose responses were plotted in terms of acetyl salicylate content and the following ED50 values obtained: […]

CC(=O)Oc1ccccc1C(=O)O [Calcium acetyl salicylate]
% incidence gastric erosions (gastric erosions; dose 100 mg/kg): 25%

CC(=O)Oc1ccccc1C(=O)O [Sodium acetyl salicylate]
ED50 [1]: 56 mg/kg
% incidence gastric erosions (gastric erosions; dose 160 mg/kg): 88%
% incidence gastric erosions (gastric erosions; dose 338 mg/kg): 75%

From patent US4083951A, “Pharmaceutical composition” (Beecham Group Limited, priority 1976, dated 1978)
